Reference: ChEMBL document CHEMBL1201862, “PubChem BioAssay data set” (2004)
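Briefly, cells in 96-well plates were exposed to five compound concentrations for 48 h, and endpoints were estimated by linear interpolation. Here, GI50 denotes the concentration required for 50% inhibition of growth.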 Activity calls are given as the source filed them. Rule as the data show it: active = GI50 up to about 1.1 µM and inactive = higher.

Key:
Assay in all cases: inhibition of tumour cell growth, NCI panel, 48 h
A549 = tested on: A549
UACC-62 = tested on: UACC-62
SW-620 = tested on: SW-620
UO-31 = tested on: UO-31
HT-29 = tested on: HT-29
SK-MEL-2 = tested on: SK-MEL-2
SN12C = tested on: SN12C
SF-539 = tested on: SF-539
SK-MEL-5 = tested on: SK-MEL-5
RXF 393 = tested on: RXF 393
IGROV-1 = tested on: IGROV-1
SNB-75 = tested on: SNB-75
SK-OV-3 = tested on: SK-OV-3
NCI-H23 = tested on: NCI-H23
SR = tested on: SR
HOP-62 = tested on: HOP-62
HOP-92 = tested on: HOP-92
EKVX = tested on: EKVX
MCF7 = tested on: MCF7
DU-145 = tested on: DU-145

Measured: GI50

Cc1ccc(F)c2c(=O)cc(-c3ccccc3)[nH]c12
inactive: A549 > 100 µM | UACC-62 > 100 µM | SW-620 > 100 µM | UO-31 60.3 µM | HT-29 > 100 µM | SK-MEL-2 > 100 µM | SN12C > 100 µM | SF-539 > 100 µM | SK-MEL-5 87.5 µM | RXF 393 > 100 µM | IGROV-1 > 100 µM | SNB-75 26 µM | SK-OV-3 > 100 µM | NCI-H23 > 100 µM | SR 50.5 µM | HOP-62 > 100 µM | HOP-92 > 100 µM

CCOc1ccc(N(CC(=O)N2CC(=O)Nc3cc(C)c(C)cc32)C(C)=O)cc1
inactive: A549 > 100 µM | UACC-62 > 100 µM | SW-620 > 100 µM | UO-31 75.7 µM | HT-29 > 100 µM | SK-MEL-2 > 100 µM | SN12C > 100 µM | SF-539 > 100 µM | SK-MEL-5 > 100 µM | RXF 393 > 100 µM | EKVX > 100 µM | SNB-75 > 100 µM | SK-OV-3 > 100 µM | NCI-H23 > 100 µM | SR > 100 µM | HOP-62 > 100 µM | HOP-92 83.2 µM

[O-][S+]1Cc2ccccc2CSS1 (centres undefined)
inactive: A549 19 µM | UACC-62 13 µM | SW-620 13.6 µM | UO-31 17.9 µM | HT-29 14.4 µM | SN12C 14.4 µM | SF-539 14.5 µM | SK-MEL-5 13.5 µM | RXF 393 3.85 µM | IGROV-1 29.2 µM | EKVX 25.2 µM | SNB-75 19.6 µM | SK-OV-3 44.3 µM | NCI-H23 14.3 µM | SR 13.9 µM | HOP-92 15.6 µM

O=C1C2C(C(=O)N1Cc1ccccc1)N(Cc1ccccc1)C(=O)N2Cc1ccccc1 (centres undefined)
inactive: A549 > 100 µM | UACC-62 > 100 µM | SW-620 > 100 µM | UO-31 > 100 µM | HT-29 > 100 µM | SN12C > 100 µM | SF-539 > 100 µM | SK-MEL-5 > 100 µM | RXF 393 > 100 µM | IGROV-1 > 100 µM | EKVX > 100 µM | SNB-75 59.3 µM | SK-OV-3 > 100 µM | NCI-H23 > 100 µM | SR > 100 µM | HOP-62 > 100 µM | HOP-92 > 100 µM

COc1cccc(/C=N/C23CC4CC(CC(C4)C2)C3)c1
inactive: A549 > 100 µM | UACC-62 > 100 µM | SW-620 > 100 µM | UO-31 > 100 µM | HT-29 > 100 µM | SK-MEL-2 > 100 µM | SN12C > 100 µM | SF-539 > 100 µM | SK-MEL-5 > 100 µM | RXF 393 > 100 µM | IGROV-1 > 100 µM | EKVX > 100 µM | SNB-75 55.5 µM | SK-OV-3 > 100 µM | NCI-H23 > 100 µM | SR > 100 µM | HOP-62 > 100 µM | HOP-92 > 100 µM

CCN(CC)CC(=O)/C=C/c1ccc(C)cc1
inactive: A549 27 µM | UACC-62 17.3 µM | SW-620 16.2 µM | UO-31 20.1 µM | HT-29 22.3 µM | SN12C 17.6 µM | SF-539 20.7 µM | SK-MEL-5 17.8 µM | RXF 393 24.3 µM | IGROV-1 20.8 µM | SNB-75 24.3 µM | SK-OV-3 29.2 µM | NCI-H23 30.5 µM | SR 27.7 µM | HOP-62 34.1 µM | HOP-92 30.1 µM

COc1ccc(C2(CN(C)C)COc3cc(OC)c(OC)cc3C2=O)cc1OC (centres undefined)
inactive: A549 69.8 µM | UACC-62 38.7 µM | SW-620 21.6 µM | UO-31 44.8 µM | HT-29 46.7 µM | SN12C 77.1 µM | SF-539 39.9 µM | SK-MEL-5 24.1 µM | RXF 393 31.8 µM | IGROV-1 > 100 µM | EKVX > 100 µM | SNB-75 47 µM | SK-OV-3 > 100 µM | NCI-H23 32.7 µM | SR 30.6 µM | HOP-62 > 100 µM | HOP-92 79.3 µM

O=C1C(=Cc2ccc(O)cc2)N=C(c2ccccc2)N1n1c(-c2ccccc2)nc2ccccc2c1=O
inactive: A549 > 100 µM | MCF7 30.9 µM | UACC-62 97.1 µM | SW-620 > 100 µM | UO-31 > 100 µM | HT-29 72.8 µM | SN12C > 10 µM | SF-539 > 100 µM | SK-MEL-5 > 100 µM | IGROV-1 > 100 µM | EKVX > 100 µM | SNB-75 > 100 µM | SK-OV-3 > 100 µM | NCI-H23 71.6 µM | HOP-62 > 100 µM | DU-145 > 100 µM
